In ChEMBL document CHEMBL1201862, “PubChem BioAssay data set” (2004) one finds IC50 data, which are given here for two compounds.

The structures appear in SMILES notation. The source made the active and inactive calls. Rule as the data show it: actives have a measured IC50 and inactives only a lower limit.

In this assay the target is Envelope glycoprotein gp160 (Human immunodeficiency virus 1, UniProt Q6QLK5). The assay is described as follows: cell-free HIV fusion peptide-binding blockers – biochemical, uHTS, fluorescence dequenching, […] (AID 1986).
Envelope glycoprotein gp160, sequence (Q6QLK5 whole entry, the tested form may be a part): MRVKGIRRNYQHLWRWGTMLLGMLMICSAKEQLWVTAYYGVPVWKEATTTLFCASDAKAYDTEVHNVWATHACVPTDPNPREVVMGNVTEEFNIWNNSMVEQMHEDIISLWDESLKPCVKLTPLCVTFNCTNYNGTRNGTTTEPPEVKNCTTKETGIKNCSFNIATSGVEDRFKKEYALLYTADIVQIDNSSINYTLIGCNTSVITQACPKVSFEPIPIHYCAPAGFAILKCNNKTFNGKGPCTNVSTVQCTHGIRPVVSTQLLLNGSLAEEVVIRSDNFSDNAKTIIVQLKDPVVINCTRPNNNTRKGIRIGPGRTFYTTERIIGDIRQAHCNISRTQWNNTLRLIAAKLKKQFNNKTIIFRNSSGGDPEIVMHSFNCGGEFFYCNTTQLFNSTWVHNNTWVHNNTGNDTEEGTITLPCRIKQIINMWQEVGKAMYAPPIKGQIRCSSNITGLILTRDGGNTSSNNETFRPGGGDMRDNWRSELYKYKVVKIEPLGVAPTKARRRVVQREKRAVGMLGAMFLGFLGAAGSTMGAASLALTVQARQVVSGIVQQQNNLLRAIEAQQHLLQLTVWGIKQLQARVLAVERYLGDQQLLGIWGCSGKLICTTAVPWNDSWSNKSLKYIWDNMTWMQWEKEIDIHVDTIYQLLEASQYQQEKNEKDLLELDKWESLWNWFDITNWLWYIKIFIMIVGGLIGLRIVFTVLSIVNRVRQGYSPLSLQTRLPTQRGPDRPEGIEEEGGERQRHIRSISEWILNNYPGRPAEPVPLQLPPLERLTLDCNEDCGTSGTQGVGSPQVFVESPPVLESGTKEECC

Usually IC50 stands for the concentration needed to halve the response being measured. In the case of `Cc1ccc(/C=C2\SC(=S)N(CCCC(=O)Nc3ccccc3C(=O)O)C2=O)cc1`, the 50% inhibitory concentration (IC50) is 27.8 µM (active).
The figure for `CS(=O)(=O)C1=NSC2=NC(=O)/C(=C\c3ccc(OC(=O)c4ccco4)c(Br)c3)C(=N)N21` is 16 µM (active).
